# Reference: patent US7235379B2, “Method and medium for the detection/identification of microorgranisms with esterase activity” (Bio Merieux, priority 2000, dated 2007)
# “And” between values parts separate entries of the source, which are not always exact repeats. Equal values may be shown once. Where a name gives a salt, the structure may show the parent alone. Read-outs that look alike come from different tables or passages of the source.
# Experiments:
# [1] = test system: Salmonella paratyphi A 006
# Method: The esterase substrate tested is 5-bromo-4-chloro-3-indolyl nonanoate. A 40 g/l stock solution of substrate is prepared in a mixture of 40% dimethyl sulfoxide and 60% Tween 20. A sufficient volume is added to a supercooled MacConkey medium (without neutral red) to give a substrate concentration of 250 mg/l.
# (§1) Microorganisms originating from the Applicant's collection were inoculated onto this medium from a 0.5 McFarland suspension by isolation in three quadrants. The dishes were incubated at 37° C. for 48 hours. The colonies formed were examined visually after 24 and 48 hours of incubation. The coloration of these colonies and the intensity of this coloration were noted.
# (§2) Note: In the above Examples, the numbers following the strains correspond to the number of each strain referenced in the Applicant's collection. The intensity of coloration corresponds to an arbitrary scale defined as follows: […]
# [2] = test system: Salmonella enteritidis 006; experiment: Ex.4 colony coloration, 5-bromo-3-indolyl nonanoate, DMSO/Tween 20, MacConkey; assay type: cell-based; settings: 8 ml/l Tergitol 4
# [3] = test system: bacterial strains exhibiting an esterase activity; settings: between 2 and 16 ml/l, more precisely between 4 and 8 ml/l
# Method: (§3) The esterase substrate tested is 5-bromo-3-indolyl nonanoate. A 25 g/l stock solution of substrate is prepared in methanol to which 5 g/l of bile salts have been added. A sufficient volume is added to a supercooled MacConkey medium (without neutral red) to give a substrate concentration of 500 mg/l.
# as §1
# [4] = test system: bacterial strains exhibiting an esterase activity; settings: between 2 and 16 ml/l, more precisely between 4 and 8 ml/l; remark: listed apart in the source
# Method: The esterase substrate tested is 5-bromo-3-indolyl nonanoate. A 40 g/l stock solution of substrate is prepared in a mixture of 40% dimethyl sulfoxide and 60% Tween 20. A sufficient volume is added to a supercooled MacConkey medium (without neutral red) to give a substrate concentration of 500 mg/l.
# as §1
# Salmonella typhi 118 = assay type: cell-based; as to intensity of coloration: key: 0: no activity; 0.1: trace of coloration; 0.5: very pale coloration; 1: distinct coloration of low intensity; 2: clear coloration of medium intensity; 3: intense coloration; 4: very intense coloration
# Salmonella arizonae 018 = experiment: Ex.1 colony coloration, 5-bromo-3-indolyl nonanoate, DMSO/Tween 20, MacConkey; assay type: cell-based
# [5] = test system: Staphylococcus epidermidis 009; experiment: Ex.3 colony coloration, 5-bromo-4-chloro-3-indolyl nonanoate 250 mg/l, DMSO/Tween 20; assay type: cell-based; also: key: 0: no activity; 0.1: trace of coloration; 0.5: very pale coloration; 1: distinct coloration of low intensity; 2: clear coloration of medium intensity; 3: intense coloration; 4: very intense coloration
# Salmonella spp. 017 = experiment: Ex.4 colony coloration, 5-bromo-3-indolyl nonanoate, DMSO/Tween 20, MacConkey; assay type: cell-based; settings: 8 ml/l Tergitol 4
# Method: This medium is then separated into eight portions. […] Microorganisms originating from the Applicant's collection were inoculated onto this medium from a 0.5 McFarland suspension by isolation in three quadrants. The dishes were incubated at 37° C. for 48 hours. The colonies formed were examined visually after 24 and 48 hours of incubation. The coloration of these colonies and the intensity of this coloration were noted.
# Serratia marcescens 038 = experiment: Ex.2 colony coloration, 5-bromo-3-indolyl nonanoate, methanol/bile salts, MacConkey; assay type: cell-based; as to intensity of coloration: key: 0: no activity; 0.1: trace of coloration; 0.5: very pale coloration; 1: distinct coloration of low intensity; 2: clear coloration of medium intensity; 3: intense coloration; 4: very intense coloration
# Enterobacter cloacae 086 [6] = experiment: Ex.1 colony coloration, 5-bromo-3-indolyl nonanoate, DMSO/Tween 20, MacConkey; assay type: cell-based; as to intensity of coloration: key: 0: no activity; 0.1: trace of coloration; 0.5: very pale coloration; 1: distinct coloration of low intensity; 2: clear coloration of medium intensity; 3: intense coloration; 4: very intense coloration
# [7] = test system: Salmonella paratyphi A 006; remark: listed apart in the source
# Method: as §3, §1, §2
# Enterobacter cloacae 086 [8] = experiment: Ex.2 colony coloration, 5-bromo-3-indolyl nonanoate, methanol/bile salts, MacConkey; assay type: cell-based
# Hafnia alvei 025 = experiment: Ex.4 colony coloration, 5-bromo-3-indolyl nonanoate, DMSO/Tween 20, MacConkey; assay type: cell-based; design: key: —: absence of colour or intensity; settings: 8 ml/l Tergitol 4
smiles,measurement,setting,value
"CCCCC(CC)CCC(CC(C)C)OS(=O)(=O)O (stereo not shown) [Tergitol 4, 7-ethyl-2-methyl-4-undecanoate hydrogensulfate or its sodium salt]",intensity of coloration,"[1]; 0.001 ml/l, 24 h",0.1
same,intensity of coloration,"[1]; 0.001 ml/l, 48 h",0.5
same,intensity of coloration,"[1]; 0.01 ml/l, 24 h",0.1
same,intensity of coloration,"[1]; 0.01 ml/l, 48 h",1
same,intensity of coloration,"[1]; 0.1 ml/l, 24 h",0.1
same,intensity of coloration,"[1]; 0.1 ml/l, 48 h",0.5
same,intensity of coloration,"[1]; 1 ml/l (1st col), 24 h",0.5
same,intensity of coloration,"[1]; 1 ml/l (1st col), 48 h",2
same,intensity of coloration,"[1]; 1 ml/l (2nd col), 24 h",0.5
same,intensity of coloration,"[1]; 1 ml/l (2nd col), 48 h",2
same,color,[2]; 24 h,gray
same,intensity of coloration,[2]; 24 h,3
same,color,[2]; 48 h,gray
same,intensity of coloration,[2]; 48 h,3
same,effect on intensity of coloration,[3],significantly increases the intensity of coloration
same,effect on intensity of coloration,[4],significantly increases the intensity of coloration
same,color,Salmonella typhi 118,gray
same,intensity of coloration,Salmonella typhi 118; sodium salt,3 and 3.5
same,color,"Salmonella arizonae 018; 2 ml/l, 24 h",gray
same,intensity of coloration,"Salmonella arizonae 018; 2 ml/l, 24 h",2
same,color,"Salmonella arizonae 018; 2 ml/l, 48 h",gray
same,intensity of coloration,"Salmonella arizonae 018; 2 ml/l, 48 h",2.5
same,color,"Salmonella arizonae 018; 4 ml/l, 24 h",gray
same,intensity of coloration,"Salmonella arizonae 018; 4 ml/l, 24 h",3.5
same,color,"Salmonella arizonae 018; 4 ml/l, 48 h",gray
same,intensity of coloration,"Salmonella arizonae 018; 4 ml/l, 48 h",3.5
same,color,"Salmonella arizonae 018; 8 ml/l, 24 h",gray
same,intensity of coloration,"Salmonella arizonae 018; 8 ml/l, 24 h",3.5
same,color,"Salmonella arizonae 018; 8 ml/l, 48 h",gray
same,intensity of coloration,"Salmonella arizonae 018; 8 ml/l, 48 h",3.5
same,color,"Salmonella arizonae 018; 16 ml/l, 24 h",gray
same,intensity of coloration,"Salmonella arizonae 018; 16 ml/l, 24 h",3.5
same,color,"Salmonella arizonae 018; 16 ml/l, 48 h",gray
same,intensity of coloration,"Salmonella arizonae 018; 16 ml/l, 48 h",4
same,intensity of coloration,"[5]; 0.001 ml/l, 24 h",2
same,intensity of coloration,"[5]; 0.001 ml/l, 48 h",2
same,intensity of coloration,"[5]; 0.01 ml/l, 24 h",3
same,intensity of coloration,"[5]; 0.01 ml/l, 48 h",3
same,intensity of coloration,"[5]; 0.1 ml/l, 24 h",2
same,intensity of coloration,"[5]; 0.1 ml/l, 48 h",3
same,intensity of coloration,"[5]; 1 ml/l (1st col), 24 h",2
same,intensity of coloration,"[5]; 1 ml/l (1st col), 48 h",2
same,intensity of coloration,"[5]; 1 ml/l (2nd col), 24 h",0.5
same,intensity of coloration,"[5]; 1 ml/l (2nd col), 48 h",3
same,color,Salmonella spp. 017; 24 h,gray
same,intensity of coloration,Salmonella spp. 017; 24 h,2.5
same,color,Salmonella spp. 017; 48 h,gray
same,intensity of coloration,Salmonella spp. 017; 48 h,3.5
same,color,"Serratia marcescens 038; 2 ml/l, 24 h",gray
same,intensity of coloration,"Serratia marcescens 038; 2 ml/l, 24 h",2
same,color,"Serratia marcescens 038; 2 ml/l, 48 h",gray
same,intensity of coloration,"Serratia marcescens 038; 2 ml/l, 48 h",3
same,color,"Serratia marcescens 038; 4 ml/l, 24 h",gray
same,intensity of coloration,"Serratia marcescens 038; 4 ml/l, 24 h",2
same,color,"Serratia marcescens 038; 4 ml/l, 48 h",gray
same,intensity of coloration,"Serratia marcescens 038; 4 ml/l, 48 h",4
same,color,"Serratia marcescens 038; 8 ml/l, 24 h",gray
same,intensity of coloration,"Serratia marcescens 038; 8 ml/l, 24 h",2
same,color,"Serratia marcescens 038; 8 ml/l, 48 h",gray
same,intensity of coloration,"Serratia marcescens 038; 8 ml/l, 48 h",4
same,color,"Serratia marcescens 038; 16 ml/l, 24 h",gray
same,intensity of coloration,"Serratia marcescens 038; 16 ml/l, 24 h",2
same,color,"Serratia marcescens 038; 16 ml/l, 48 h",gray
same,intensity of coloration,"Serratia marcescens 038; 16 ml/l, 48 h",4
same,color,"Enterobacter cloacae 086 [6]; 2 ml/l, 24 h",gray
same,intensity of coloration,"Enterobacter cloacae 086 [6]; 2 ml/l, 24 h",0.5
same,color,"Enterobacter cloacae 086 [6]; 2 ml/l, 48 h",gray
same,intensity of coloration,"Enterobacter cloacae 086 [6]; 2 ml/l, 48 h",2
same,color,"Enterobacter cloacae 086 [6]; 4 ml/l, 24 h",gray
same,intensity of coloration,"Enterobacter cloacae 086 [6]; 4 ml/l, 24 h",1
same,color,"Enterobacter cloacae 086 [6]; 4 ml/l, 48 h",gray
same,intensity of coloration,"Enterobacter cloacae 086 [6]; 4 ml/l, 48 h",3
same,color,"Enterobacter cloacae 086 [6]; 8 ml/l, 24 h",gray
same,intensity of coloration,"Enterobacter cloacae 086 [6]; 8 ml/l, 24 h",0.5
same,color,"Enterobacter cloacae 086 [6]; 8 ml/l, 48 h",gray
same,intensity of coloration,"Enterobacter cloacae 086 [6]; 8 ml/l, 48 h",1
same,color,"Enterobacter cloacae 086 [6]; 16 ml/l, 24 h",gray
same,intensity of coloration,"Enterobacter cloacae 086 [6]; 16 ml/l, 24 h",0.5
same,color,"Enterobacter cloacae 086 [6]; 16 ml/l, 48 h",gray
same,intensity of coloration,"Enterobacter cloacae 086 [6]; 16 ml/l, 48 h",1
same,color,"[7]; 2 ml/l, 24 h",gray
same,intensity of coloration,"[7]; 2 ml/l, 24 h",0.1
same,color,"[7]; 2 ml/l, 48 h",gray
same,intensity of coloration,"[7]; 2 ml/l, 48 h",0.5
same,color,"[7]; 4 ml/l, 24 h",gray
same,intensity of coloration,"[7]; 4 ml/l, 24 h",0.1
same,color,"[7]; 4 ml/l, 48 h",gray
same,intensity of coloration,"[7]; 4 ml/l, 48 h",1
same,color,"Enterobacter cloacae 086 [8]; 2 ml/l, 24 h",gray
same,intensity of coloration,"Enterobacter cloacae 086 [8]; 2 ml/l, 24 h",0.5
same,color,"Enterobacter cloacae 086 [8]; 2 ml/l, 48 h",gray
same,intensity of coloration,"Enterobacter cloacae 086 [8]; 2 ml/l, 48 h",2
same,color,"Enterobacter cloacae 086 [8]; 4 ml/l, 24 h",gray
same,intensity of coloration,"Enterobacter cloacae 086 [8]; 4 ml/l, 24 h",1
same,color,"Enterobacter cloacae 086 [8]; 4 ml/l, 48 h",gray
same,intensity of coloration,"Enterobacter cloacae 086 [8]; 4 ml/l, 48 h",3
same,color,"Enterobacter cloacae 086 [8]; 8 ml/l, 24 h",gray
same,intensity of coloration,"Enterobacter cloacae 086 [8]; 8 ml/l, 24 h",0.5
same,color,"Enterobacter cloacae 086 [8]; 8 ml/l, 48 h",gray
same,intensity of coloration,"Enterobacter cloacae 086 [8]; 8 ml/l, 48 h",1
same,color,"Enterobacter cloacae 086 [8]; 16 ml/l, 24 h",gray
same,intensity of coloration,"Enterobacter cloacae 086 [8]; 16 ml/l, 24 h",0.5
same,color,"Enterobacter cloacae 086 [8]; 16 ml/l, 48 h",gray
same,intensity of coloration,"Enterobacter cloacae 086 [8]; 16 ml/l, 48 h",1
same,color,Hafnia alvei 025; 24 h,—
same,color,Hafnia alvei 025; 48 h,—
